{
  "source": "patent US10570152B2",
  "about": "“Antibacterial therapeutics and prophylactics” (VYOME BIOSCIENCES PVT. LTD., priority 2015, dated 2020)",
  "key": {"[1]": {"assay": "Drug release assay of compound impregnated Smart set HV", "format": "physicochemical", "conditions": "Smart set HV loaded; PBS buffer (pH 6.8):acetonitrile (9:1), 32° C., 7 days", "method": "The drug release study with compound 2 and compound 10 were conducted in sample vial containing 1.5 ml of dissolution media i.e., PBS buffer (pH 6.8):acetonitrile (9:1). The sample was kept in incubator rotator at 32° C. at 40 rpm. The release medium was withdrawn at specified interval of time (2 hr, 4 hr, 6 hr, day 1, day 2, day 3, day 4, day 5, day 6, day 7 and replaced by fresh 1.5 ml dissolution medium each time. All the samples were kept at −20° C. till the analysis is done. The measurement of drug release was done by HPLC."}, "[2]": {"tested_on": "S. epidermidis ATCC 35984 biofilm", "assay": "Biofilm disruption assay (MTT) with compounds and compound loaded beads", "format": "cell-based", "conditions": "Staphylococcus epidermidis, ATCC35984, read-out: Concentration of compounds (mg/ml) for 50% biofilm disruption", "method": "S. epidermidis ATCC 35984 was grown in Brain Heart Infusion Agar (BHIA) at 37° C. for 24 h. The loop full of bacterial culture was suspended in sterile water and matched the turbidity against 0.5 McFarland Standard (approximately 1.5×10^8), 100 μl of culture suspension was added into each well of the 96 well plate and plates were incubated at 37° C. for 48 h for biofilm formation. The biofilm formed in each well was washed twice with sterile water to remove the planktonic cells. Then biofilm was treated with 100 yl of BHI broth suspended with various concentrations of DART molecules, followed by incubation of the plates at 37° C. for 24 h. Subsequently the biofilm in the wells were stained with MTT reagent and the plates were incubated at 37° C. for 2 h. The precipitate formed in the wells was dissolved in 100 μl of dimethyl sulfoxide (DMSO) and the absorbance was measured at 600 nm in multi well plate reader to determine the minimum biofilm inhibitory concentration (MBIC). The MBIC was calculated by subtracting the absorbance value of each drug treated sample from that of 48 h growth control."}},
  "data": [
    {"smiles": "Cc1ncc([N+](=O)[O-])n1CCN1CCN(c2cc3c(cc2F)c(=O)c(C(=O)O)c2n3C(C)S2)CC1", "note": "(centres unmarked) [Compound 2, 6-Fluoro-1-methyl-7-(4-(2-(2-methyl-5-nitro-1H-imidazol-1-yl)ethyl)piperazin-1-yl)-4-oxo-1H,4H-[1,3]thiazeto[3,2-a]quinoline-3-carboxylic acid]", "values": [
      {"measurement": "drug release from bone cement in words", "setting": "[1]", "value": "sustained release of active over a period of 7 days"},
      {"measurement": "EC50", "setting": "[2]", "value": "0.5 to 1", "unit": "mg/mL"}
    ]}
  ]
}
